In US5990096A (priority 1992, dated 1999):

What was measured:
[1] = in vivo
Fisher Bladder Carcinoma = assay: Intratumour injection study: radioactivity remaining in tumor tissue; assay type: in vivo, Fisher 344 rat; details: intratumor injection
Experimental: (§1) 1. These drugs were administrated by intratumor injection. (right frank)
(§2) Group A:H-5-FU 5 mg/kg+saline/0.3 ml (i.t.)
(§3) B:H-5-FU 5 mg/kg+HA 15 mg/kg/0.3 ml (s.c.)
(§4) 3H-FU without or with HA was injected as a single dose (0.3 ml) into the center of the tumor (on the right frank) with a 30 gause needle. At the same time, injection into normal skin (on the left frank) was carried out similarly.
(§5) The tumor and skin was then removed at different times (1 h,6 hr) for counting radioactivity of the remaining content in the tissue.

[2] = Intratumour injection study: radioactivity remaining in normal skin; assay type: in vivo, Fisher 344 rat; details: injection into normal skin
Experimental: as §1
At the same time, injection into normal skin (left frank) was carried out similarly.
as §2, §3, §4, §5

| SMILES | Side effects [1] | Radioactivity retention in tumor tissue (Fisher Bladder Carcinoma) | Radioactivity clearance from normal tissue (skin) [2] |
| --- | --- | --- | --- |
| O=C(O)Cc1ccccc1Nc1c(Cl)cccc1Cl [Oral diclofenac acid] | gastritis | – | – |
| O=c1[nH]cc(F)c(=O)[nH]1 [Formulation 3H-5FU, 5-Fluoracil] | – | immediately disappeared | immediately disappeared |
